Reference: patent publication US5602184A, “Monoterpenes, sesquiterpenes and diterpenes as cancer therapy” (priority 1993, dated 1997)
Several values for one entry are separate records, joined by “and”; a condition that tells them apart may be missing. Equal values may be shown once. Entries after “also recorded” stand apart in the source; their conditions may differ. Read-outs that look alike come from different tables or passages of the source.

Key:
[1] = tested on: PC3 human prostate carcinoma; assay: In vitro antitumor activity of terpenes against PC3 (seven day exposure); assay type: cell-based; settings: for activity compared with farnesol (standard): FIGS. 7-9, relative to farnesol; for IC50: Homo sapiens, 168 h, PC3, seven day exposure; for activity against the human prostate cancer cells: FIGS. 1-6, growth as % of untreated control
Protocol: A human prostate carcinoma cell line, PC3, was obtained from the American Tissue Culture Collection, Accession No. CRL 1435. The PC3 cells were cultured in RPMI 1640 medium enriched with 10% fetal calf serum (FCS). The medium and the FCS are both available from GIBCO BRL Life Technologies, Inc., 8400 Helgeman Lane, Gaithersburg, Md. 20877.
Terpenes were exposed to the PC3 cells as follows. On day 0, seed PC3 cells at about 1,000 cells per well were placed in each well of a 96-well tissue culture plate along with […] (ml) of culture medium. On day 1, various concentrations of each of the selected terpenes were added. A serial dilution of each terpene was made in dimethyl sulfoxide (DMSO). All of the initial concentrations were about 200 times the desired concentration. Each dose was further diluted 100 times with culture medium. 0.1 ml of each dose was added per well to the tissue culture plate. The plates were incubated at 37° Celsius (C) under 5% carbon dioxide (CO2) for seven days. The results are depicted graphically in FIGS. 1-9 and some of the concentrations which inhibited cell growth to about 50% of the control growth (IC50) are shown in Table 1.

prostate tumor cells = assay: Apoptosis and nuclear fragmentation (DNA ladder gel); assay type: cell-based; settings: for DNA ladder indicative of apoptosis: 2% agarose minigel
Protocol: The invention examined the effect on prostate tumor cells of treatment with limonene, farnesol and phytol. […] The classic signature of apoptosis is the cleavage of nuclear DNA into nucleosomal subunits. On gels, this gives rise to the appearance of a ladder as nucleosomal units are sequentially cleaved from the DNA.
After drug exposure, cells were lysed and the high molecular DNA removed by centrifugation. The aqueous phase was treated with proteinase K to digest proteins. After a phenol/chloroform extraction, the DNA was precipitated with salt and ethanol. The pellet was dissolved in deionized water and treated with 500 μg/ml RNase A. The DNA was run on a 2% agarose minigel.

[2] = tested on: tumor cell lines U87, A172, HOS, AD5, HT29; assay: Cell viability of surviving cells in the proliferation test (exclusion method); assay type: cell-based, human; settings: of the approximately 50% of cells which survived (at IC50)
Protocol: (§1) Limonene was added to the growth medium, which was supplemented with 10% FCS, and incubated at 37° C. for 24 hours. The medium was added to human tumor cells plated the previous day in 60 millimeter (mm) tissue culture (TC) dishes. After three to four days of continuous treatment, the cells were detached by trypsinization and counted using a hemocytometer (Hy-Lite Counting Chamber from Fisher Scientific, 711 Forbes Ave., Pittsburgh, Pa. 15219-4785). Cell viability was determined by a trypin blue exclusion method as described in detail in the manufacturer's instructions.

[3] = tested on: AD5 osteosarcoma (high ras); assay: Effect of limonene on tumor cell proliferation, AD5; assay type: cell-based; settings: Homo sapiens, 96 h; DMEM; three to four days of continuous treatment
Protocol: (§2) Limonene (Sigma) was evaluated for its effect on proliferation of various tumor cell lines. The cell lines included U87 and A172 (both are glioblastomas), HOS (a low ras osteosarcoma), AD5 (a high ras osteosarcoma), and HT29 (a high ras colon carcinoma). An activated or high ras means that the ras oncogene has mutated to a form which can transform normal cells to malignant cells. The glioblastoma cells were grown in RPMI 1640 culture medium and the other three cell lines were grown in Dulbecco's Modified Eagle's Medium (DMEM, available from GIBCO).
as §1

[4] = Tolerability and body weight of nude mice treated with limonene; assay type: in vivo
Protocol: (§3) Nude mice were obtained from Cancer Research Facility in Frederick, Md. The strain name is Athymic MCR-nude. PC3 cells were transplanted into both the right and left flanks of nude mice and allowed to grow until the tumor size reached the volume of approximately 200-300 cubic mm (mm^3). At this time, five mice bearing ten tumors total were allocated to each group.
(§4) The drug or vehicle alone were administered by gavage once daily Monday through Friday for two weeks. The control group received olive oil at a dose of 0.1 cubic centimeters (cc) per ten grams (gm) of body weight. […] Both body weight and tumor volume were measured daily.

[5] = tested on: PC3 human prostate carcinoma; assay: In vivo antitumor activity of d-limonene against PC3 in nude mice; parameters: species or system nude mice (human PC3 tumor); settings: gavage once daily Monday through Friday for two weeks
Protocol: as §3, §4

A172 glioblastoma = assay: Effect of limonene on tumor cell proliferation, A172; assay type: cell-based; settings: Homo sapiens, A 172, 96 h; RPMI 1640; three to four days of continuous treatment
Protocol: as §2, §1

[6] = tested on: AD5 human osteosarcoma cell line; assay: Effect of limonene on radiation sensitivity of tumor cells; assay type: cell-based; settings: 3 mM limonene; FIG. 10
Protocol: An activated ras oncogene makes tumor cells resistant to radiation therapy. The AD5 human osteosarcoma cell line is an example of such a cell line resistant to radiation by virtue of an activated ras oncogene. AD5 cells were cultivated as described in Example 2. Limonene was prepared in various concentrations also as described in Example 2. […] This dose refers to the dose that reduces the number of surviving cells to about 37% of the control cells. Gy (gray) is an international metric unit for an absorbed dose of radiation. One Gy equals one Joule/kg.

U87 glioblastoma = assay: Effect of limonene on tumor cell proliferation, U87; assay type: cell-based; settings: Homo sapiens, 96 h; RPMI 1640; three to four days of continuous treatment
Protocol: as §2, §1

[7] = tested on: HOS osteosarcoma (low ras); assay: Effect of limonene on tumor cell proliferation, HOS; assay type: cell-based; settings: Homo sapiens, 96 h; DMEM; three to four days of continuous treatment
Protocol: as §2, §1

[8] = to compounds having terminal hydroxy groups; cited from earlier work
[9] = tested on: HT29 colon carcinoma (high ras); assay: Effect of limonene on tumor cell proliferation, HT29; assay type: cell-based; settings: Homo sapiens, HT-29, 96 h; DMEM; three to four days of continuous treatment
Protocol: as §2, §1

[10] = tested on: PC3 human prostate carcinoma; assay: In vivo antitumor activity of phytol against PC3 in nude mice; parameters: species or system nude mice (human PC3 tumor)
Protocol: as §3
(§5) The drug or vehicle alone were administered by gavage once daily Monday through Friday for two weeks. The control group received olive oil at a dose of 0.1 cubic centimeters (cc) per ten grams (gm) of body weight. Other groups received the same volume of olive oil with limonene added to give a daily dose of limonene of 0.1, 1.0 or 2.0 […]. Both body weight and tumor volume were measured daily.
(§6) The experimental procedure of Example 5 was followed except that phytol was used in place of limonene. […] The results are depicted in FIG. 13 which plots the percent change of tumor volume versus the number of days after inoculation of the nude mice with […] tumor cells.

[11] = parameters: species or system nude mice; settings: mouse, in vivo
Protocol: as §3, §5, §6

In the case of `CC(C)c1ccc(C=O)cc1` [4-isopropylbenzaldehyde], the “activity compared with farnesol (standard)” value [1] is reported as “less active”.

In the case of `CC(C)c1ccc(C(=O)O)cc1` [4-isopropylbenzoic acid], the “activity compared with farnesol (standard)” value [1] is reported as “less active”.

In the case of `CC(C)c1ccc(CO)cc1` [4-isopropylbenzylalcohol], the “activity compared with farnesol (standard)” value [1] is reported as “less active”.

With `O=C(O)CCCCCCCCCCCCCCCO` [16-hydroxyhexadecanoic acid] the “activity compared with farnesol (standard)” value [1] was “less active”.

With `C=CC(=C)CCC=C(C)C` [beta-myrcene] the IC50 [1] was 147 µM and 21 µg/mL.

With `CC(C)=CCCC(C)=CC=O` [citral] the “activity against the human prostate cancer cells” value [1] was “favorable activity” and the IC50 [1] was 17 µM and 3 µg/mL.

For `CC(C)=CCCC(C)CC=O` (stereo not drawn) [citronellal], the “activity compared with farnesol (standard)” value [1] was “less active”.

In the case of `CC(C)=CCCC(C)CC(=O)O` (stereo not drawn) [citronellic acid], the “activity compared with farnesol (standard)” value [1] is reported as “less active”.

In the case of `CC(C)=CCC[C@@H](C)CCO` [d-citronellol], the “activity compared with farnesol (standard)” value [1] is reported as “less active”.

For `C=CC(C)CCCC(C)(C)O` (stereo not drawn) [dihydromyrcenol], the “activity compared with farnesol (standard)” value [1] was “less active”.

In the case of `CC(C)=CCC/C(C)=C/CC/C(C)=C/CO` [farnesol, trans, trans-farnesol], the “activity against the human prostate cancer cells” value [1] is reported as “favorable activity”, the IC50 [1] is reported as 85.6 µM and 19 µg/mL and the “mode of cell death” value (prostate tumor cells) is reported as “apoptosis, not necrosis”. For the same compound, the “tumor cell death (not cytostasis)” value (prostate tumor cells) was “tumor cell death (not cytostasis) was observed” and the “DNA ladder indicative of apoptosis” value (prostate tumor cells) was “a classic DNA ladder indicative of apoptosis has been noted; also recorded: classic DNA ladders”.

In the case of `CC(C)=CCC/C(C)=C/CC/C(C)=C/C(=O)O` [farnesylic acid], the “activity against the human prostate cancer cells” value [1] is reported as “favorable activity”.

With `CC(C)=CCC/C(C)=C/CC/C(C)=C/CC/C(C)=C/CO` [geranylgeraniol] the “activity against the human prostate cancer cells” value [1] was “favorable activity” and the IC50 [1] was 10.5 µM and 3 µg/mL.

In the case of `C=C(C)[C@H]1CC=C(C)CC1` [limonene, d-Limonene], the cell viability [2] is reported as > 95%, the IC50 [3] is reported as 4800 ± 600 µM and the tolerability ([4]; gavage, two weeks, up to 2.0 gm/kg) is reported as “appeared to tolerate the drug well”. For the same compound, the loss in weight ([4]; mouse, in vivo) was “not a statistically significant loss in weight”, the “rate of tumor growth vs control group” value ([5]; 0.1 gm/kg) was “the same” and the “rate of tumor growth vs control group” value ([5]; 1.0 gm/kg) was “the same”. The “rate of tumor growth vs control group” value ([5]; 2.0 gm/kg) was “approximately half of that in the control group”, the IC50 (A172 glioblastoma) was 1500 ± 500 µM and the “effect on radiation dose response curve” value [6] was “alters both the shoulder and the dose (Do) of the radiation dose response curve”. The IC50 (U87 glioblastoma) was 2100 ± 400 µM, the IC50 [7] was 3000 ± 300 µM and the metabolism in vivo [8] was “rapidly metabolized”. The IC50 [1] was 217 µM and 30 µg/mL, the IC50 [9] was 4500 ± 500 µM and the “mode of cell death” value (prostate tumor cells) was “apoptosis, not necrosis”. The “tumor cell death (not cytostasis)” value (prostate tumor cells) was “tumor cell death (not cytostasis) was observed” and the “DNA ladder indicative of apoptosis” value (prostate tumor cells) was “a classic DNA ladder indicative of apoptosis has been noted; also recorded: classic DNA ladders”.

In the case of `CC(C)=CCC/C(C)=C\CO` [nerol], the “activity compared with farnesol (standard)” value [1] is reported as “less active”.

With `C=CC(C)(O)CCC=C(C)CCC=C(C)C` (stereo not drawn) [nerolidol] the “activity against the human prostate cancer cells” value [1] was “favorable activity” and the IC50 [1] was 90.1 µM and 20 µg/mL.

With `C=C(C)C1CC=C(C=NO)CC1` (stereo not drawn) [perillartine] the “activity compared with farnesol (standard)” value [1] was “less active”.

In the case of `C/C(=C\CO)CCC[C@H](C)CCC[C@H](C)CCCC(C)C` [phytol], the “tumor production during the treatment period” value ([10]; during the treatment period) is reported as “negligible tumor production”, the “tumor volume as compared to the control animals” value ([10]; phytol by procedure of Example 5) is reported as “lower tumor volume” and the tolerability [11] is reported as “tolerated the phytol well”. The “activity against the human prostate cancer cells” value [1] was “favorable activity”, the IC50 [1] was 34.3 µM and 10 µg/mL and the “mode of cell death” value (prostate tumor cells) was “apoptosis, not necrosis”. The “tumor cell death (not cytostasis)” value (prostate tumor cells) was “tumor cell death (not cytostasis) was observed” and the “DNA ladder indicative of apoptosis” value (prostate tumor cells) was “a classic DNA ladder indicative of apoptosis has been noted”.
